Data as given in ChEMBL document CHEMBL1201862, “PubChem BioAssay data set” (2004).
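Cultured in 96-well plates, cells were exposed to test compound for 48 hours across five concentrations. At the GI50, growth is halved.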 Active and inactive are the calls of the source. Rule as the data show it: active = GI50 up to about 1.1 µM and inactive = higher.

Experiments:
Assay in all cases: NCI-60 cell line screen, 48 h
[1] = system: 786-0
[2] = system: A498
[3] = system: ACHN
[4] = system: BT-549
[5] = system: COLO 205
[6] = system: HL-60
[7] = system: HOP-92
[8] = system: IGROV-1
[9] = system: LOX IMVI
[10] = system: M14
[11] = system: MDA-N
[12] = system: MOLT-4
[13] = system: Malme-3M
[14] = system: NCI-H226
[15] = system: NCI-H522
[16] = system: SF-268
[17] = system: SNB-75
[18] = system: SW-620
[19] = system: T47D
[20] = system: UO-31

Measured: GI50

O=C(Nc1cnc(O)nc1O)Oc1ccccc1
inactive: [1] > 100 µM | [2] > 100 µM | [3] > 100 µM | [4] > 100 µM | [5] > 100 µM | [6] 14.3 µM | [7] > 100 µM | [8] > 100 µM | [9] > 100 µM | [10] > 100 µM | [11] > 100 µM | [12] > 100 µM | [13] > 100 µM | [14] > 100 µM | [15] > 100 µM | [16] > 100 µM | [17] > 100 µM | [18] > 100 µM | [19] > 100 µM | [20] > 100 µM

CCN(CC)CCn1c2ccccc2c(=O)c2c(O)ccc(O)c21
inactive: [1] 34.1 µM | [2] 74.3 µM | [3] 33.7 µM | [4] 22.5 µM | [5] 20.6 µM | [6] 6.49 µM | [7] 19.4 µM | [8] 38.5 µM | [9] 15.1 µM | [10] 42 µM | [11] 18.7 µM | [12] 18.5 µM | [13] 24.7 µM | [14] 53.6 µM | [15] 15.4 µM | [16] 30.5 µM | [17] 22.3 µM | [18] 13.8 µM | [19] 18.2 µM | [20] 47.4 µM

Cc1ccc(/N=N/NCCCCN)cc1
inactive: [1] > 100 µM | [2] > 100 µM | [3] 12.6 µM | [4] > 100 µM | [5] > 100 µM | [6] 3.79 µM | [7] > 100 µM | [8] > 100 µM | [9] 10.1 µM | [10] > 100 µM | [11] > 100 µM | [12] 7.26 µM | [13] > 100 µM | [14] > 100 µM | [15] > 100 µM | [16] > 100 µM | [17] > 100 µM | [18] > 100 µM | [19] > 100 µM | [20] 12.2 µM

CCc1cccc(C(C)(C)C)c1NC(=S)N/C=C(/C#N)C(N)=O
inactive: [1] > 100 µM | [2] > 100 µM | [3] > 100 µM | [4] 44.8 µM | [5] > 100 µM | [6] 93.1 µM | [7] 14 µM | [8] > 100 µM | [9] > 100 µM | [10] > 100 µM | [11] > 100 µM | [12] > 100 µM | [13] > 100 µM | [14] > 100 µM | [15] > 100 µM | [16] > 100 µM | [17] 30.9 µM | [18] > 100 µM | [19] 95.5 µM | [20] 31.3 µM

CCOC(=O)/C(C#N)=C/c1ccc2c(c1)CC1(C2)Cc2cc(CC)c(C(C)O)cc2C1 (stereo not given)
inactive: [1] 17.3 µM | [2] 25.8 µM | [3] 30.3 µM | [4] 10.8 µM | [5] 25.2 µM | [6] 3.03 µM | [7] 16.5 µM | [8] 23 µM | [9] 6.95 µM | [10] 5.32 µM | [11] 2.21 µM | [12] 4.59 µM | [13] 6.11 µM | [14] 19.3 µM | [15] 47 µM | [16] 13 µM | [17] 8.38 µM | [18] 5.38 µM | [19] 27.9 µM | [20] 21.4 µM

C=C(C)[C@H]1[C@@H]2OC(=O)[C@H]1[C@]1(O)C[C@H]3OC34C(=O)O[C@H]2[C@@]41C.CC(C)(O)[C@H]1[C@@H]2OC(=O)[C@H]1[C@]1(O)C[C@H]3OC34C(=O)O[C@H]2[C@@]41C (stereo not given in full)
inactive: [1] > 100 µM | [2] > 100 µM | [3] > 100 µM | [4] > 100 µM | [5] > 100 µM | [6] > 100 µM | [7] > 100 µM | [8] > 100 µM | [9] > 100 µM | [10] > 100 µM | [11] > 100 µM | [12] > 100 µM | [13] > 100 µM | [14] > 100 µM | [15] > 100 µM | [16] > 100 µM | [17] > 100 µM | [18] > 100 µM | [19] > 100 µM | [20] > 100 µM

CC[N+](C)(CC)Cc1ccccc1[N+](=O)[O-]
inactive: [1] > 100 µM | [2] 41.2 µM | [3] > 100 µM | [4] 36 µM | [5] 46 µM | [6] > 100 µM | [7] > 100 µM | [8] > 100 µM | [9] > 100 µM | [10] > 100 µM | [11] > 100 µM | [12] > 100 µM | [13] > 100 µM | [14] 64.7 µM | [15] > 100 µM | [16] 59.4 µM | [17] > 100 µM | [18] 87.7 µM | [19] > 100 µM | [20] > 100 µM
